In article PMC5882690, “Mechanical characteristics of beta sheet-forming peptide hydrogels are dependent on peptide sequence, concentration and buffer composition” (Royal Society Open Science, 2018):
Where a SMILES comes first, the peptide text is derived from it.

Legend:
[1] = target: T1, human neutrophil elastase (Homo sapiens, UniProt P08246); experiment: SAP hydrogel degradation by human neutrophil elastase; assay type: in vitro ADME; settings: human neutrophil elastase 100 µg ml^-1 (86 units ml^-1) in PBS, 37°C, 5% CO2, 20 mg ml^-1 P11-4, 15 mg ml^-1 others, Qubit Protein Assay, mean ± SD, n = 3
T1 construct: purchased Innovative Research, USA
T1 sequence (P08246 30-267): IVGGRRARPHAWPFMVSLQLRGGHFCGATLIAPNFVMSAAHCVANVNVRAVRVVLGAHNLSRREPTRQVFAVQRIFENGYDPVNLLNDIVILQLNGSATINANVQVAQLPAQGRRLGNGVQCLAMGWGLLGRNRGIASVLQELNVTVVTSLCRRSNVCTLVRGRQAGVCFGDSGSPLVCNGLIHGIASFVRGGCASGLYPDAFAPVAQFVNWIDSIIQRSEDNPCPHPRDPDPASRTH
Description: SAP hydrogel dissolution and degradation properties of the peptides in the presence and absence of neutrophilic elastase and microorganisms were measured by determining the peptide content of the supernatant. Therefore, SAPs were assembled in PBS at concentrations of 20 mg ml^−1 for P11-4 and 15 mg ml^−1 for P11-8, P11-13/14 and P11-28/29. The assay was performed in a 96-well plate with gel volumes of 100 µl well^−1. 86 units ml^−1 elastase (Innovative Research, USA) (100 µg ml^−1) were added to the assembled peptides in PBS solution. After 24 h incubation at 37°C and 5% CO2, 10 µl of the supernatant was sterilely removed after 24 and 168 h and measured indirectly by monomeric peptide concentration in the supernatant using the Qubit® Protein Assay (Q33211; Thermo Fisher; fluorescence at 485/590 nm) and transferred back for the remainder of the experiment allowing peptide hydrogel degradation measurement without disturbing the hydrogel to buffer fluid balance. The measurements are based on the fact that degraded peptides cause disassembly of the fibrils, as assembly rules are no longer given, resulting in an increase in monomeric SAP in solution. SAP concentrations were calculated based on respective peptide standard curves. For data analysis, SAP concentrations measured in the supernatant were calculated as a percentage of the specific starting concentrations of each peptide system. Statistical analysis was done using a two-way ANOVA followed by Sidak's multiple comparison test.

[2] = Oscillatory amplitude sweep (storage modulus G′ in linear viscoelastic region, yield point); assay type: physicochemical; settings: for yield point YP / peptide hydrogel stiffness G′ / yield point YP (strain where G′ < 95% of original value): mean ± SD, n = 3; for peptide hydrogel stiffness G′: 140 mM ionic strength, assembled overnight; for peptide hydrogel stiffness G′ / yield point YP (strain where G′ < 95% of original value): 37°C
Description: […] The amplitude sweep tests were performed to measure storage moduli (G′) within the linear viscoelastic region. Calculations of the gel breaking points (yield points) were performed with MATLAB depending on the different peptide concentrations. Therefore, the yield strain was defined as the point where G′ is less than 95% of its original value. Oscillatory time sweep experiments were performed to study the gelation speed and hydrogel stiffness. Time sweeps up to 150 min measuring time using a frequency of 1 rad s^−1 and amplitude gamma of 0.05% were used. SAP hydrogel stiffness was determined after the equilibrium of the storage modulus (G′) was reached (t = 100 min). To determine the gelation speed, the slope of increasing storage modulus over time was calculated in the interval from t = 5 to 10 min after placing peptide solutions onto the rheometer.
To study SAP hydrogel stiffness within the linear viscoelastic region and gel breaking points according to the peptide concentrations, unary SAP hydrogels (300 µl) were prepared in vials at concentrations of 15 mg ml^−1, 20 mg ml^−1 and 30 mg ml^−1 by dissolving first the lyophilized peptides in 150 µl of buffer A and then adding 150 µl of peptide-specific Tris–NaCl buffer B according to table 1. Complementary SAP hydrogels (P11-13/14 and P11-28/29) were obtained by dissolving 150 µl of P11-13 in 0.1 M Tris buffer + 0.052 M NaCl pH 8 and 150 µl P11-14 in 0.055 M Tris buffer + 0.096 M NaCl pH 7.2 (table 1). The P11-13 and P11-14 solutions were then mixed (1 : 1) to obtain 300 µl of complementary SAP hydrogel with a final ionic strength of 140 mM and a pH of 7.2. All SAP hydrogels were allowed to assemble overnight.
To study the influence of divalent ions and different media on SAP hydrogel stiffness, gelation speed and gel breaking points (yield points), SAPs were prepared at a concentration of 15 mg ml^−1 in the different media, Tris–NaCl, Tris–MgSO4, DMEM or artificial saliva, according to table 1. All experiments were done at least in duplicate. Statistical evaluation was performed with GRAPHPAD PRISM version 6.0 based on a one-way ANOVA test followed by Tukey's multiple comparison test.

[3] = 15 mg ml^-1, Tris–NaCl, amplitude sweep
[4] = 20 mg ml^-1, Tris–NaCl, amplitude sweep
[5] = 30 mg ml^-1, Tris–NaCl, amplitude sweep

CC(=O)N[C@@H](CCC(N)=O)C(=O)N[C@@H](CCC(N)=O)C(=O)N[C@@H](CCCNC(=N)N)C(=O)N[C@@H](Cc1ccccc1)C(=O)N[C@@H](CCC(=O)O)C(=O)N[C@@H](Cc1c[nH]c2ccccc12)C(=O)N[C@@H](CCC(=O)O)C(=O)N[C@@H](Cc1ccccc1)C(=O)N[C@@H](CCC(=O)O)C(=O)N[C@@H](CCC(N)=O)C(=O)N[C@@H](CCC(N)=O)C(N)=O [P11-4, CH3CO-QQRFEWEFEQQ-NH2] (Ac-QQRFEWEFEQQ-NH2)
relative peptide amount in supernatant (% of peptide starting concentration) ([1]; 1 d): 14.7± 2.8% | relative peptide amount in supernatant (% of peptide starting concentration) ([1]; 7 d): 12.8± 5.8% | yield point YP ([2]; 15 mg ml^-1, Tris–MgSO4, amplitude sweep): 0.05±0.03% | peptide hydrogel stiffness G′ [2, 3]: 2.1± 1.0 kPa | yield point YP (strain where G′ < 95% of original value) [2, 3]: 2.3±0.3% | yield point YP [2, 3]: 0.45± 0.05% | yield point YP ([2]; 15 mg ml^-1, artificial saliva, amplitude sweep up to 100% strain): 0.3 ± 0.02% | yield point YP ([2]; 15 mg ml^-1, serum-free DMEM, amplitude sweep up to 100% strain): 2.3 ± 0.44% | peptide hydrogel stiffness G′ [2, 4]: 2.4± 0.3 kPa | yield point YP (strain where G′ < 95% of original value) [2, 4]: 1.3±0.3% | peptide hydrogel stiffness G′ [2, 5]: 4.6± 1.3 kPa | yield point YP (strain where G′ < 95% of original value) [2, 5]: 1.2±0.7% | factor of increase of SAP hydrogel stiffness ([2]; doubling SAP concentration from 15 to 30 mg ml^-1, Tris–NaCl): 2
